We go through 3 compounds from article PMC8179138, “Ligand design by targeting a binding site water” (Chemical Science, 2020).

Series [1] addresses T1, hAR subtype A2A in HEK293 cells (Homo sapiens, UniProt P29274).
T1 construct: expressed in transfected cells
As to the kind of experiment: Functional cAMP assay, A2AAR. The class given is cell-based. As to conditions: for Emax at 10 µM: HEK293, stimulation of cAMP production at 10 μM, n=3, read-out: Maximum efficacy A2A (% activation); for A2AAR agonist activity in words: Gs-mediated cAMP production.

Series [2] concerns the target T2, human A3AR (Homo sapiens, UniProt P0DMS8).
T2 sequence (P0DMS8 1-318): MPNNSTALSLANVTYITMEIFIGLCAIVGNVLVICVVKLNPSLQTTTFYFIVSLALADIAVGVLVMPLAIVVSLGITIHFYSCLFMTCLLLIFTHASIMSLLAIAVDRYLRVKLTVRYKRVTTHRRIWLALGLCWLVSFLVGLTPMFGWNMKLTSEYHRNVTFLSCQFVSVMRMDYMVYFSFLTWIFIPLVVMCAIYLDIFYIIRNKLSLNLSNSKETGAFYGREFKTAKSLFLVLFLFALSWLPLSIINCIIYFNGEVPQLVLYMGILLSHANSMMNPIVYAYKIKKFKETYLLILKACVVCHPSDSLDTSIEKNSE
On the set-up: expressed in transfected cells; method as in Rodriguez et al.3. The note with it: ref Rodriguez et al.3; cited from earlier work.

For series [3], the target named is T3, human A2AAR (Homo sapiens, UniProt P29274). On the set-up: expressed in transfected cells. As to conditions: cited from earlier work.
T3 sequence (P29274 whole entry): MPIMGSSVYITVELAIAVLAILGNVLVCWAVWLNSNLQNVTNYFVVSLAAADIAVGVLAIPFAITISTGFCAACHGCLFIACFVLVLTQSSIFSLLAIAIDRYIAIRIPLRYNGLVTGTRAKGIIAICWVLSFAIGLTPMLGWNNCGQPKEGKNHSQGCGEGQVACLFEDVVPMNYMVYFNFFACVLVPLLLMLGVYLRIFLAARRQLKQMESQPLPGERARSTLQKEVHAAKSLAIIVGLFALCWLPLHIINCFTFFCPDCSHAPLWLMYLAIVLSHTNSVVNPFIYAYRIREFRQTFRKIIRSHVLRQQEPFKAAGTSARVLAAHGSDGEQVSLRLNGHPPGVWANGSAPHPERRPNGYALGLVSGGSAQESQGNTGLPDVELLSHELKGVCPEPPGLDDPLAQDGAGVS
Series [4] deals with T4, human A2BAR (Homo sapiens, UniProt P29275).
T4 sequence (P29275 1-332): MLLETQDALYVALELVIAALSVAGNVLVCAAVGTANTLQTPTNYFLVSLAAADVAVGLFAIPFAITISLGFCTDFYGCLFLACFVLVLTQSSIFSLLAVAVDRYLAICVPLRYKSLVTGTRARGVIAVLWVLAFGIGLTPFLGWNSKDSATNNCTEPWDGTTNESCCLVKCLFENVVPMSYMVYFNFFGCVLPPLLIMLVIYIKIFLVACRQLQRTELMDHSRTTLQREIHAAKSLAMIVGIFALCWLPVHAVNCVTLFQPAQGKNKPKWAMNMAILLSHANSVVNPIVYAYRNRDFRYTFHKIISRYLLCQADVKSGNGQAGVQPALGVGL
As to the kind of experiment: Radioligand binding assay, A2BAR. The note with it: read-out: % Inhibition at 10µM A2B.
Method: (§1) using 8-[4-[[[[(2-aminoethyl)amino]carbonyl]methyl]oxy]phenyl]-1,3-dipropylxanthin e (XAC) at 10 µM for A1 and A2A and 100 µM for A2B and A3. Binding parameters were calculated using Prism 8 software (GraphPAD, San Diego, CA, USA). IC50 values obtained from competition curves were converted to Ki values using the Cheng–Prusoff equation23.
(§2) Data are express ed as mean ± standard error.

Series [5] deals with T2, human A3AR. The experiment in a line: Radioligand binding assay, A3AR.
Method: as §1, §2
The target of series [6] is T5, human A1AR (Homo sapiens, UniProt P30542).
T5 sequence (P30542 1-326): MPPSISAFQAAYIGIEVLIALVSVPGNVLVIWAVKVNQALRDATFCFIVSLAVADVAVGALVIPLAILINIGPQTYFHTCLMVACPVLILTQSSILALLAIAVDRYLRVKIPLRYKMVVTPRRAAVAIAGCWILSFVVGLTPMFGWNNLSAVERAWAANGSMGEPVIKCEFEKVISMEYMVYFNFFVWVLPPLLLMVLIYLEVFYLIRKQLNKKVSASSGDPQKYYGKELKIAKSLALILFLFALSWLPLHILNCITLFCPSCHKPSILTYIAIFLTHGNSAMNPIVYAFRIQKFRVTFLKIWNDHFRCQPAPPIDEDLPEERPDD
The experiment in a line: Radioligand binding assay, A1AR.
Method: as §1, §2

Series [7] has as its target T3, human A2AAR. As to the kind of experiment: Radioligand binding assay, A2AAR. The note with it: for A2AAR activity class (Active/Inactive) in Fig. 2: summary of binding and functional data.
Method: as §1, §2
In series [8] the target is T6, hAR subtype A2B in HEK293 cells (Homo sapiens, UniProt P29275).
T6 construct: expressed in transfected cells
T6 sequence (P29275 1-332): T4 sequence (P29275 1-332)
The experiment in a line: Functional cAMP assay, A2BAR. The class given is cell-based. On the technique in general: Cyclic AMP is a second messenger, typically raised through Gs and lowered through Gi signalling.

The subject of series [9] is adenosine deaminase. As to the kind of experiment: A2AAR activity in absence and presence of adenosine deaminase. The class given is in vitro ADME. As to conditions: concluded qualitatively from A2AAR activity without and with adenosine deaminase. The method, then: For compounds 3 and 4, both binding and functional assays at the A2AAR were carried out (Fig. 2). Experiments were also performed for the A1, A2B, and A3 subtypes (Fig. S1 and Table S1 ^†).

In series [10] the target is T7, hAR subtype A1 in HEK293 cells (Homo sapiens, UniProt P30542).
T7 sequence (P30542 1-326): T5 sequence (P30542 1-326)
As to the kind of experiment: Functional cAMP assay, A1AR. The class given is cell-based.

In series [11] the target is T8, hAR subtype A3 in HEK293 cells (Homo sapiens, UniProt P0DMS8).
T8 construct: expressed in transfected cells
T8 sequence (P0DMS8 1-318): T2 sequence (P0DMS8 1-318)
The experiment in a line: Functional cAMP assay, A3AR. The class given is cell-based.

Like-named read-outs stand apart in the source and are kept apart here. Bounds are passed on as bounds.

T1 sequence (P29274 whole entry): as the sequence (P29274 whole entry) above

For the compound `Nc1nccc2c1ncn2[C@@H]1O[C@H](CO)[C@@H](O)[C@H]1O` [Compound 2, 3-deazaadenosine], in [1], the Emax at 10 µM amounted to 20 ± 4%. In [2], the % Inhibition – broadly, how much of the control response was suppressed – at 10µM A3 was 53 ± 11%. The “% Inhibition at 10µM A2A” value in series [3] (10 µM, ref Rodriguez et al.3) is on record as 24 ± 8%. The “A2AAR activity class (Active/Inactive) in Fig. 2” value in [3] (summary of binding and functional data) is “Inactive”. Moreover, the Ki (usually a measure of affinity in units of concentration, obtained from inhibition or displacement) in [3] (very low affinity) is 39 µM.

As for `Cc1cnc(N)c2ncn(C3OC(CO)C(O)C3O)c12` (stereo not drawn) [Compound 3], the inhibition – broadly, the relative decrease from the control value, in per cent – at 10 µM in series [4] is 1 ± 1%; in series [5] (read-out: % Inhibition at 10µM A3) it was 50 ± 2%; in series [6] (read-out: % Inhibition at 10µM A1), 48 ± 17%; in series [7] (read-out: % Inhibition at 10µM A2A), 13 ± 1%. In [1], the “A2AAR agonist activity in words” value was “inactive”. For the same compound, the Emax at 10 µM in series [1] was 9 ± 1%. Further, the “% Inhibition at 10µM A2A” value in series [7] (10 µM, radioligand binding, n=3) is on record as “did not show significant displacement”. The “A2AAR activity class (Active/Inactive) in Fig. 2” value in series [7] is given as “Inactive”.

As to `Nc1ncc(CO)c2c1ncn2C1OC(CO)C(O)C1O` (stereo not drawn) [Compound 4], the inhibition at 10 µM in [4] came to 29 ± 7%. Besides, the Ki in series [5] stood at 0.28 ± 0.027 µM; in [6] it was 0.031 ± 0.004 µM; in series [7], 0.103 µM. Further, the “activation of A2BAR in words” value in [8] is “not”. The Emax in series [8] (cAMP, HEK293, n=3, read-out: Maximum efficacy A2B) is less than 15%; in series [10] (cAMP, HEK293, n=3, read-out: Maximum efficacy A1), 101 ± 3%; in series [11] (cAMP, HEK293, n=3, read-out: Maximum efficacy A3), 97 ± 4%. Further, in [1], the “A2AAR agonist activity in words” value is on record as “full agonist”. For the same compound, in series [1], the Emax at 10 µM is 99 ± 3%. For the same compound, the EC50 (as a rule, the concentration needed to bring the measured effect to its halfway point) in [1] (cAMP production, HEK293, n=3) came to 0.732 µM; in [10] (cAMP, HEK293, n=3) it was 0.18 ± 0.038 µM; in series [11] (cAMP, HEK293, n=3), 0.318 ± 0.066 µM. The “resistance to degradation by adenosine deaminase” value in series [9] was “resistance”. The “A2AAR activity class (Active/Inactive) in Fig. 2” value in series [7] is given as “Active”. For the same compound, the “activation of A1 subtype in words” value in [10] is given as “activated”. The “activation of A3 subtype in words” value in series [11] is reported as “activated”.
